The source of these data is publication PMC4286001 (Journal of Clinical Pharmacy and Therapeutics, 2013).

Data set [1] is classed as in vivo, human. Conditions: for V/F, geometric mean (%CV): single oral 45 mg tablet.
Data set [2] in a line: Safety and tolerability of single-dose ponatinib 45 mg in healthy subjects. It counts as in vivo, human.
The conditions of data set [3]: cited from earlier work.

Read-outs that look alike come from different tables or passages of the source.

Regarding `Cc1ccc(C(=O)Nc2ccc(CN3CCN(C)CC3)c(C(F)(F)F)c2)cc1C#Cc1cnc2cccnn12` [ponatinib, 3-[2-(imidazo[1,2-b]pyridazin-3-yl)ethynyl]-4-methyl-N-{4-[(4-methylpiperazin-1-yl)methyl]-3-(trifluoromethyl)phenyl}benzamide], in data set [1] (across high-fat, low-fat and fasted regimens, single 45-mg tablet), the “Time at which maximum mean concentrations were reached” value was in the range of 5 to 6 h. In addition, in data set [1] (all three treatment regimens, lower limit 0·5 ng/mL), the “Quantifiability of ponatinib in plasma” value is recorded as “quantifiable through the 96-h sampling interval”. Also, the “V/F, geometric mean (%CV)” value in data set [1] (fasted) is on record as 1242 (30·0) L. Further, the “V/F, geometric mean (%CV)” value in data set [1] (high-fat meal) is listed as 1104 (28·8) L. For the same molecule, in data set [1] (low-fat meal), the “V/F, geometric mean (%CV)” value was 1278 (37·6) L. Moreover, the “Time post-dose at which maximum plasma concentration was observed” value in data set [1] (overall, fasting, high-fat and low-fat) is reported as approximately 6 h. For the same molecule, the “Subjects with AEs at least possibly related to treatment, n (%)” value in data set [2] (24 subjects, all regimens) is 10 (41·7%) subjects. Besides, in data set [2] (all regimens), the “Severe AEs” value is “no severe AEs”; the “Treatment-related increased lipase levels” value was “three”; the “Vital signs, ECG parameters or physical examinations” value was “No clinically significant abnormalities”. The “High triacylglycerol lipase levels” value in data set [2] (clinically significant abnormality) is recorded as “three”. For the same molecule, in data set [2] (healthy subjects, regardless of food intake regimen), the Tolerability result is “generally well tolerated”. Moreover, the “Clinically significant abnormalities (laboratory), number” value in data set [2] (in a total of five subjects) is reported as “five”.

For the molecule `Cc1nc(Nc2ncc(C(=O)Nc3c(C)cccc3Cl)s2)cc(N2CCN(CCO)CC2)n1` [dasatinib], the “Effect of food intake on PK” value in data set [3] is reported as “unaffected by food intake”.
